These results are taken from article PMC5814047, “Peptidic inhibitors of insulin-degrading enzyme with potential for dermatological applications discovered via phage display” (PLoS ONE, 2018).

The target of one test is T1, IDE (Homo sapiens, UniProt P14735).
T1 construct: made in house; host or cells: bacteria
T1 sequence (P14735 1-1019): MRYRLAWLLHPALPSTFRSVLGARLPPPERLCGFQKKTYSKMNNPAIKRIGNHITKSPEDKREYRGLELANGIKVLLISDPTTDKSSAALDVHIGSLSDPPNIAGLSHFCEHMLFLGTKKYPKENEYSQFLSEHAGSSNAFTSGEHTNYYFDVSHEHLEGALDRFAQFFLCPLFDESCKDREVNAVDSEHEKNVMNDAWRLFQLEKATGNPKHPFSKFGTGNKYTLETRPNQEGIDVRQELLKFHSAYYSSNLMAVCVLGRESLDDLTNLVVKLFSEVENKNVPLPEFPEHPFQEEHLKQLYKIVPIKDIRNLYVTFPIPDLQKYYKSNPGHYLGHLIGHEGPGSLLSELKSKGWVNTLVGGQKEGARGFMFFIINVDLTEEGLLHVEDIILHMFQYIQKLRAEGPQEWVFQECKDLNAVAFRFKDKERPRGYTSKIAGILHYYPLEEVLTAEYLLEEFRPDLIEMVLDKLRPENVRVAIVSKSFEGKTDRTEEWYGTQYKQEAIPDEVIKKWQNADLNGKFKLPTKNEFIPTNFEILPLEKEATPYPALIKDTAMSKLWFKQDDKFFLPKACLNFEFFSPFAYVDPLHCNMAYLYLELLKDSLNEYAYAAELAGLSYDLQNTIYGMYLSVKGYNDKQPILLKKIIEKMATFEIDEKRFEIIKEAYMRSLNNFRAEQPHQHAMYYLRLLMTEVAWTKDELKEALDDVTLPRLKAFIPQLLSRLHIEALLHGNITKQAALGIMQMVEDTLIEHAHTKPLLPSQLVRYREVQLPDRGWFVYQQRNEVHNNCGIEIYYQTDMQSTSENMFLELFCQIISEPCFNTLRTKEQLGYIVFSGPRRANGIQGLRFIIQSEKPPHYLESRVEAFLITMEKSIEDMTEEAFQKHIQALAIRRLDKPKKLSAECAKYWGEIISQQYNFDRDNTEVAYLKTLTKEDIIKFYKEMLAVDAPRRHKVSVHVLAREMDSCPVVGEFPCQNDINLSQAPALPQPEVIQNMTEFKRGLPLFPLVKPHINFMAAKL
On the set-up: method as in PMID 24847884. The settings on record: read-out: IC50 against insulin; cited from earlier work.

Test [1] concerns multiple matrix-metalloproteases (MMPs). Kind of test: Matrix Metalloproteinase (MMP) Inhibitor Profiling Kit, Fluorometric RED. Type of test: biochemical. On the set-up: % activity relative to DMSO-only controls, single runs / % activity relative to DMSO-only controls, Mean: concentration or dose not given beside the values. How it is done:
(§1) IDE activity was quantified by monitoring the degradation of Mca-[…](Dnp) (FRET1, 5 μM), fluoresceinated and biotinylated amyloid ß-protein (FAßB; 500 nM) or recombinant human insulin (50 nM) in PBS supplemented with 0.05% BSA. FRET1 degradation was measured by changes in fluorescence (λex = 340 nm, λem = 420 nm); FAßB degradation was monitored by fluorescence polarization (λex = 488 nm, λem = 525 nm), as described; and insulin degradation was quantified by ELISA. In vitro activity assays incorporated recombinant human IDE (1 nM) purified from bacteria. For quantitation of insulin degradation in primary murine skin fibroblasts, cells (1 x 10^5/well) were plated in 96-well plates and maintained in DMEM supplemented with 10% fetal bovine serum (FBS), 2mM glutamine, penicillin and streptomycin. After addition of insulin (10 nM or 100 nM), samples of conditioned medium were removed daily and quickly frozen, then insulin levels were quantified in parallel by ELISA according to manufacturer’s recommendations (Crystal Chem, Downers Grove, IL, USA). Assessment of the activity of P12-3A against a variety of matrix-metalloproteases was conducted using the Matrix Metalloproteinase (MMP) Inhibitor Profiling Kit, Fluorometric RED (Enzo Life Sciences, Inc., Farmingdale, NY, USA) according to manufacturer’s recommendations using the broad-spectrum MMP inhibitor, NNGH, as a positive control.
Supplementary file pone.0193101.s004.tif: S4 Fig Selectivity of P12-3A for IDE vis-à-vis other proteases. Activity of P12-3A (100 μM) against (A) multiple matrix-metalloproteases (MMPs) and (B) multiple peptidases of different protease classes. […] Data are mean ± SD, n = 8–16 per group. P<0.05 by 2-tailed Student’s t-test. […] See Materials and Methods for details. NEP, neprilysin; mCatD, murine cathepsin D; hCatD, human cathepsin D. (TIF) Click here for additional data file.

The target in another test is T2, MMP-7 (Homo sapiens, UniProt P09237).
T2 construct: purchased Enzo Life Sciences, Inc
T2 sequence (P09237 95-267): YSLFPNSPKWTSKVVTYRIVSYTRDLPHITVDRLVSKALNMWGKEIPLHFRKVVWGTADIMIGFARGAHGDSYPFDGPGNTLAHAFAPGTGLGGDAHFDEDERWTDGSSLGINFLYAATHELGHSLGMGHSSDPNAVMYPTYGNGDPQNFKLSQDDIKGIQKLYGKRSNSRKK
Kind of test: MMP Inhibitor Profiling Kit, MMP-7. Type of test: biochemical. The settings on record: MMP-7. How it is done: as §1, with “control. […]” for “control.”

Structures are written as SMILES.

As a reminder, the IC50 is the concentration at which inhibition is half-maximal. With `NCCCC[C@@H]1NC(=O)/C=C/C(=O)N[C@H](C(N)=O)CCCCNC(=O)[C@@H](Cc2ccc(C(=O)c3ccccc3)cc2)NC(=O)[C@H](CC2CCCCC2)NC1=O` [6bK], on IDE, the IC50 was ~0.1 µM.

With `COc1ccc(S(=O)(=O)N(CC(=O)NO)CC(C)C)cc1` [NNGH, reference compound], the “% activity relative to DMSO-only controls, Mean” value in test [1] (MMP-1) was 1.0%; in test [1] (MMP-2), 0.122%; in test [1] (MMP-3), -1.2%; in test [1] (MMP-8), 5.1%; in test [1] (MMP-9) it was 4.0%; in test [1] (MMP-12), 1.9%. Besides, the “% activity relative to DMSO-only controls, Mean” value was 6.5% in test [1] (MMP-13), 24% in test [1] (MMP-14), 38% in test [1] (MMP-19) and 49.4% at MMP-7. Moreover, in test [1] (NNGH positive control, P< 0.01), the “inhibition by positive control, MMPs” value was “significant inhibition”.
